The values that follow come from US5952501A, “Certain tricyclic substituted diazabicylo[3.2.1] octane derivatives” (priority 1995, dated 1999).

The subject of data set [1] is amphetamine-induced hyperactivity. The following applies: Rattus norvegicus, sc, 1 h, read-out: ED50 Hyperactivity.
Data set [2] relates to apomorphine-induced stereotypy. The experiment in a line: Antagonism of Apomorphine-Induced Stereotypy. The following applies: Rattus norvegicus, sc, 1 h, read-out: ED50 Stereotypy.
The conditions of data set [3]: cited from earlier work.
Another data set concerns stereotypy:hyperactivity. Description: stereotypy:hyperactivity ED50 ratio (typical versus atypical neuroleptic profile). The format is in vivo, male Sprague-Dawley rats. The following applies: for neuroleptic profile: in words, stereotypy versus hyperactivity models; for Ratio: stereotypy:hyperactivity ED50 ratio, greater than ten considered clozapine like atypical. From the text: The ratios of the ED50 's determined in the assay systems described above are predictive of typical versus atypical profiles for potential neuroleptic candidates.
A compound encompassed within the disclosure of French patent application No. 71.27825 was synthesized and evaluated using the assays described above. This prior art compound is designated Compound A for purposes of comparison and has the formula: [drawing 12]

The structures appear in SMILES notation. Like-named read-outs stand apart in the source and are kept apart here.

In general, ED50 refers to the dose that gives a 50% effect, or the effect in half of the subjects. Turning to `CN1CCN(C2=Nc3cc(Cl)ccc3Nc3ccccc32)CC1` [Clozapine], the ED50 in data set [1] turned out to be 1.49 mg/kg. The ED50 in data set [2] was 26.9 mg/kg. For the same compound, in data set [3] (in words, than classical neuroleptics, background), the “incidence of extrapyramidal side effects” value is “lesser incidence of extrapyramidal side effects than classical neuroleptics”. Besides, in the data set with stereotypy:hyperactivity, the neuroleptic profile result is on record as “clozapine-like atypical antipsychotic profiles” and the Ratio came to 18.
In the case of `CN1C2CCC1CN(C1Cc3cc(Cl)ccc3Oc3ccccc31)C2.O=C(O)/C=C\C(=O)O` (stereo not shown) [Compound 1, 3-(2-Chloro-10,11-dihydro-dibenzo[b,f]oxepin-10-yl)-8-methyl-3,8-diazabicyclo(3.2.1)octane monomaleate], the median effective dose (ED50) is 0.84 mg/kg in data set [1] and above 40 mg/kg in data set [2]. In addition, the Ratio with stereotypy:hyperactivity is recorded as above 48.
The matching figures for `Cc1ccc2c(c1)CC(N1CC3CCC(C1)N3C)c1ccccc1O2.O=C(O)/C=C\C(=O)O` (stereo not shown) [Compound 2, 3-(2-Methyl-10,11-dihydro-dibenzo[b,f]oxepin-10-yl)-8-methyl-3,8-diazabicyclo(3.2.1)octane monomaleate]: 0.41 mg/kg, 12.7 mg/kg and 31.
Taken in the same sequence, the figures for `CN1C2CCC1CN(C1Cc3cc(Br)ccc3Oc3ccccc31)C2.O=C(O)/C=C\C(=O)O` (stereo not shown) [Compound 3, 3-(2-Bromo-10,11-dihydro-dibenzo[b,f]oxepin-10-yl)-8-methyl-3,8-diazabicyclo(3.2.1)octane monomaleate] were 2.15 mg/kg, above 22 mg/kg and above 10.
The matching figures for `O=C(CCCN1CCC(O)(c2ccc(Cl)cc2)CC1)c1ccc(F)cc1` [Haloperidol]: 0.038 mg/kg, 0.036 mg/kg and 0.94.
Consider `CN1C2CCC1CN(C1Cc3ccccc3Oc3ccc(Cl)cc31)C2` (stereo not shown) [Prior Art Cpd A], for which the ED50 in data set [1] was 0.22 mg/kg. Also, the ED50 in data set [2] was 0.69 mg/kg. Also, in the data set on stereotypy:hyperactivity, the neuroleptic profile entry is “typical neuroleptic profile which is comparable to conventional neuroleptic agents” and the Ratio is 3.1.
For `CN1CCN([C@@H]2Cc3ccccc3Sc3ccc(Cl)cc32)CC1` [R-Octoclothepin], the ED50 in data set [1] stood at 0.8 mg/kg; in data set [2], 0.18 mg/kg. The Ratio in the data set with stereotypy:hyperactivity turned out to be 4.4.
The matching figures for `CCN1CCC[C@H]1CNC(=O)c1c(O)c(Cl)cc(Cl)c1OC` [Raclopride]: 0.048 mg/kg, 0.044 mg/kg and 0.92.
`CCN1CCCC1CNC(=O)c1cc(S(N)(=O)=O)ccc1OC` (stereo not shown) [sulpiride]: the “incidence of extrapyramidal side effects” value in data set [3] (in vivo) is given as “lesser incidence of extrapyramidal side effects than classical neuroleptics”.
